Source: PMC6563099, “Novel Thienopyrimidine Derivative, RP-010, Induces β-Catenin Fragmentation and Is Efficacious against Prostate Cancer Cells” (Cancers, 2019)

How the values were obtained:
HCT116 = tested on: HCT116; set-up: method as in PMID 28759878; settings: colon cancer cell line; cited from earlier work
[1] = tested on: Bak, Bax, Bcl2, caspase 3, PARP, cytochrome c in DU145 cells; experiment: Western analysis of apoptosis-regulating proteins, DU145; type: cell-based; settings: 1 or 2 μM, 24 h
Protocol: DU145 cells were incubated with RP-010 ((1 or 2 µM) for 24 h. Thereafter, the cells were subjected to a two-step lysis process to extract and separate the cytosolic and the nuclear proteins, as previously described. Next, protein separation for both cytosolic and nuclear proteins was achieved by electrophoresing the samples through acrylamide SDS-PAGE gels, followed by transfer to a PVDF membrane. The PVDF membrane was then incubated overnight with the following primary antibodies: rabbit α-tubulin, 1:4000 dilution, rabbit BAX (1:1000), rabbit BAK (1:1000), rabbit cytochrome c (1:1000), rabbit PARP (1:5000), rabbit β-Catenin (1:4000), rabbit DVL3 (1:4000), rabbit LRP-6 (1:1000), rabbit P-LRP-6 (1:1000), rabbit c-Myc (1: 4000), rabbit cyclin B1 (1:2000), rabbit Wnt 5a (1:1000), rabbit naked 1 and naked 2 (1:1000), mouse E-cadherin (1:4000), mouse N-cadherin (1:4000), mouse β-actin (1:5000) and rabbit histone (1:3000). Finally, protein expression levels were determined as described previously. In the Figure 3, Figure 5 and Figure S8, the protein blots above β-actin were cytosolic lysates, while all the proteins below β-actin and above histones (loading controls) were nuclear lysates.

PC-3 [2] = experiment: Wound healing assay, PC-3; type: cell-based; settings: 0.5, 1, 2 or 4 µM, 12-24 h, vs vehicle
Protocol: (§1) This assay was conducted using DU145 and PC-3 cells as previously described. Upon confluence, 200 μL sterile tips were used to create a wound by gently scratching the complete cell monolayer. Sterile PBS was used to wash the cells several times to remove any floating cells. Different concentrations of the test compound were prepared in the culture media and added immediately after wound formation. The closure of the wound was observed by taking pictures at different time points by the EVOS microscope (Thermo Fisher Scientific, Wayne, MI, USA). Finally, the area of the wounds, at different time points, was calculated using Image J software (NIH, Bethesda, MD, USA).

DU145 [3] = experiment: Wound healing assay, DU145; type: cell-based; settings: 0.5, 1, 2 or 4 µM, 12-48 h, vs vehicle
Protocol: as §1

PC-3 [4] = experiment: Transwell migration assay, PC-3; type: cell-based; settings: 24 h
Protocol: (§2) The assay was done as previously described. The effect of RP-010, (0.5, 1 or 2 µM) on the migration of PC cells was tested using 24 trans-well inserts with an […] pore size. The addition of the insert to the well forms two chambers (upper and lower), where the upper chamber was used to grow the cells on the porous membrane. The lower chamber was filled with 600-μL cell-free DMEM medium. 200-μL of the cell suspension was added to each insert, and cells allowed to attach for 1 h. The test compound was added in different concentrations and incubated with the cells for 24 h. […] Finally, the remaining migrated cells were fixed by methanol, and stained with 0.1% crystal violet dye and counted with an EVOS microscope. The number of migrated cells was counted for the cultures incubated with vehicle or RP-010.

PC-3 [5] = experiment: Oxidative stress (H2DCFDA fluorescence), PC-3; type: cell-based; settings: 1, 2 and 4 µM, 24 h, vs vehicle
Protocol: (§3) The compound 2′,7′-dichlorofluorescin (H2DCFDA) was used to detect changes in the oxidative stress status, as previously described in PC-3 and DU145. […] The cells were then washed 3 times with 1× PBS for 5 min each. The level of reactive oxygen species was then measured, based on the fluorescence level of oxidized H2DCFDA dye (excitation at 485 nm and emission at 535 nm), using an EVOS digital fluorescent microscope at 40×.

PC-3 [6] = experiment: Cell cycle analysis (PI, flow cytometry), PC-3; type: cell-based; settings: 0.5, 1 or 2 µM
Protocol: The effect of RP-010 on the cell cycle phases and function was determined using cell cycle analysis with PI staining, followed by flow cytometry. The cells were incubated with either vehicle or RP-010 (0.5, 1 or 2 µM) for 24 h. After incubation overnight, the cells were collected, washed and resuspended as an ice-cold PBS suspension. The DNA was stained with PI for at least 15 min on ice. A FACS Calibur flow cytometer from BD Biosciences (San Jose, CA, USA) was used to determine the distribution of the cells following incubation with vehicle or RP-010. Finally, the data were viewed and analysed using FlowJo v10.2 software from FlowJo LLC (Ashland, OR, USA).

DU145 [7] = experiment: Time-dependent cell confluence (live cell imaging), DU145; type: cell-based
Protocol: The cytotoxicity of RP-010, over time, was determined using DU145 cells. The cells were seeded and incubated as previously described. The DU145 cells were incubated with vehicle or RP-010 for 72 h. The pictures were taken over time, at a snapshot interval of 15 min, from the same spot of the flask using the CytoSMART™ Lux 10X system (LONZA biosciences Walkersville, MD, USA) for live cell imaging.

HCT115 = tested on: HCT115; set-up: method as in PMID 28759878; settings: colon cancer cell line; cited from earlier work
DU145 [8] = experiment: Oxidative stress (H2DCFDA fluorescence), DU145; type: cell-based; settings: 0.5, 1, 2 or 4 µM, 24 h, vs vehicle
Protocol: as §3

DU145 [9] = experiment: Transwell migration assay, DU145; type: cell-based; settings: 0.5, 1 or 2 μM, 24 h
Protocol: as §2

zebrafish = experiment: Zebrafish toxicity model; type: in vivo
Protocol: The zebrafish toxicity studies were conducted as previously described. Five days-post fertilization larvae (5 fish/well) were exposed to vehicle or RP-010 (0, 0.3, 1, 3, 6, and 10 µM). Subsequently, the zebrafish were observed visually, and pictures were taken at 24- and 48-hour post exposure (hpe). […] The zebrafish studies were approved by the University of Toledo Institutional Animal Care and Use Committee (#105414, approved on 10/2018).

SMILES: COc1ccc(-c2nc3sc4c(c3c(=O)[nH]2)CCCC4)cc1 [RP10]
- IC50 (HCT116): 600 ± 300 nM
- Expression of Bax [1]: did not significantly alter
- Levels of cytochrome c [1]: did not significantly alter
- Levels of total cytosolic PARP [1]: significantly reduced
- Cleavage of caspase-3 ([1]; p < 0.001): significantly increased
- Expression of Bcl2 ([1]; p < 0.01): significantly downregulated
- Levels of cleaved nuclear PARP ([1]; p < 0.01): increased
- Levels of cleaved cytosolic PARP ([1]; p < 0.05): significantly increased
- Expression level of Bak, increase ([1]; vs vehicle, p < 0.01): ≥ 2 fold
- Wound healing (cell migration) (PC-3 [2]): significantly decreasing wound healing
- Wound healing (cell migration) (DU145 [3]): significant decrease
- Transwell migration (PC-3 [4]; 0.5 μM): not significantly altered
- Transwell migration (PC-3 [4]; 1 or 2 μM, p < 0.05): significantly decreased
- Reactive oxygen species (ROS) level (PC-3 [5]): elevated ROS levels
- Percentage of cells in G1 (PC-3 [6]): significant decrease
- Percentage of cells in the G2 phase (PC-3 [6]): significant increase
- Cell growth over time (confluence) (DU145 [7]; 0.5 µM, after 24 h of incubation, p < 0.05): significantly decreased
- Cell growth over time (confluence) (DU145 [7]; 1 µM, after 12 h of incubation, p < 0.01): significantly decreased
- IC50 (HCT115): 700 ± 200 nM
- Reactive oxygen species (ROS) level (DU145 [8]): significantly higher levels
- Number of cells migrating across the membrane (transwell) (DU145 [9]): significantly decreased
- Concentration well tolerated / without significant toxic effects (zebrafish; zebrafish): up to 6 µM
- Mortality (zebrafish; zebrafish larvae, 0.3, 1, 3, 6 or 10 µM, 24 and 48 h exposure): did not significantly increase
